Like-named read-outs stand apart in the source and are kept apart here.
Experiments:
L. major [1] = system: L. major; set-up: method as in ChEMBL; settings: ref ChEMBL, cited from earlier work
L. major [2] = assay: ChEMBL dataset of pIC50 values against L. major used for the RF model (Table S1); assay type: cell-based, Leishmania major; further: call rule not given here
From the text: From the ChEMBL database (https://www.ebi.ac.uk/chembl/, accessed on 10 January 2021), we selected a diverse set of 1085 structures that were initially classified according to their predicted activity against L. major.
Excluding these structures minimized the differences in activity values resulting from errors and differences in experimental protocols. […] Standardizer software [JChem, version 16.11.28 (2016), calculation module developed by ChemAxon, https://www.chemaxon.com/, accessed on 20 January 2021] was used to canonize all simplified molecular-input line-entry system (SMILES) codes. After duplicate structures were removed, those with higher pIC50 values were eliminated, facilitating the generation of more restrictive models.

[3] = ChemBL structures with pIC50 values used for Random forest model construction (Table S1)
[4] = Active/Inactive class assigned to ChemBL structures for Random forest model construction (Table S1)
[5] = ChemBL structures with pIC50 values used for Random forest model construction, L. major
[6] = Active/Inactive class assigned to the ChEMBL pIC50 value for Random forest model construction, ref ChEMBL

Structure (SMILES)	pIC50 Value (L. major [1]; [3])	Outcome (L. major [2]; [4])	pIC50 Value (L. major [1]; [5])	Outcome (L. major [2]; [6])
CCCN(CCC)c1ccc(Nc2c3ccccc3nc3ccccc23)cc1 [CHEMBL88980]	6.70	Active		
CCCCCN(CCCCC)c1ccc(Nc2c3ccccc3nc3ccccc23)cc1 [CHEMBL89031]	6.80	Active		
NCCNCCc1ccc(Nc2c3ccccc3nc3ccccc23)cc1 [CHEMBL89150]	6.15	Active		
c1ccc2c(Nc3ccc(NC4CCCCC4)cc3)c3ccccc3nc2c1 [CHEMBL89171]	6.26	Active		
CCCCCCNc1ccc(Nc2c3ccc(Cl)cc3nc3ccc(OC)cc23)cc1OC [CHEMBL89400]	6.30	Active		
CCN(CC)CCCNc1ccc(Nc2c3ccccc3nc3ccccc23)cc1 [CHEMBL89458]	6.70	Active		
CCN(CC)CCCc1ccc(Nc2c3ccccc3nc3ccccc23)cc1 [CHEMBL89519]	6.52	Active		
CCCCCNCc1ccc(Nc2c3ccccc3nc3ccccc23)cc1 [CHEMBL89683]	5.70	Active		
CCCCCCOc1ccc(Nc2c3ccccc3nc3ccccc23)cc1 [CHEMBL89758]	6.00	Active		
c1ccc2c(Nc3ccc(NC4CCCC4)cc3)c3ccccc3nc2c1 [CHEMBL90679]	6.35	Active		
c1ccc2c(Nc3ccc(CN4CCCC4)cc3)c3ccccc3nc2c1 [CHEMBL91079]	6.70	Active		
CCN(CC)CCNc1ccc(Nc2c3ccccc3nc3ccccc23)cc1OC [CHEMBL92012]	5.80	Active		
CNc1ccc(Nc2c3ccccc3nc3ccccc23)cc1OC [CHEMBL92157]	5.44	Active		
C=CC(C)(C)c1cc(/C=C/C(=O)c2ccc(O)cc2)c(OC)cc1O [CHEMBL139702]			4.85	Inactive
COc1ccc(/C=C/C(=O)c2ccccc2O)c(OC)c1 [CHEMBL143265]	5.34	Active		
COc1ccc(/C=C/C(=O)c2ccccc2)c(OC)c1 [CHEMBL144626]	5.40	Active		
NP(=O)(OCc1ccc([N+](=O)[O-])cc1)N(CCCl)CCCl (centres unmarked) [CHEMBL144896]			4.52	Inactive
c1ccc(-c2nc3ccccc3[nH]2)cc1 [CHEMBL153535]	5.46	Active		
CC(C)=CCC/C(C)=C/CC/C(C)=C/COc1ccc2ccc(=O)oc2c1 [CHEMBL156127]			4.88	Inactive
O=[N+]([O-])c1ccc2nc(-c3cccnc3)[nH]c2c1 [CHEMBL159327]	5.48	Active		
C[C@H]1COC2=C1C(=O)C(=O)c1c2ccc2c1CCCC2(C)C [CHEMBL187460]			4.74	Inactive

Structure (SMILES)	pIC50 Value (L. major [1]; [3])	Outcome (L. major [2]; [4])	pIC50 Value (L. major [1]; [5])	Outcome (L. major [2]; [6])
O=[N+]([O-])c1ccc(-c2nnc(N3CCCCC3)s2)s1 [CHEMBL191691]			3.82	Inactive
CC(=O)N1CCN(c2nnc(-c3ccc([N+](=O)[O-])o3)s2)CC1 [CHEMBL192375]	5.96	Active		
CC(=O)N1CCN(c2nnc(-c3ccc([N+](=O)[O-])s3)s2)CC1 [CHEMBL193546]			4.31	Inactive
O=[N+]([O-])c1ccc(-c2nnc(N3CCNCC3)s2)s1 [CHEMBL193685]			3.82	Inactive
O=C(c1ccccc1)N1CCN(c2nnc(-c3ccc([N+](=O)[O-])o3)s2)CC1 [CHEMBL195349]			4.93	Inactive
O=C(c1ccccc1)N1CCN(c2nnc(-c3ccc([N+](=O)[O-])s3)s2)CC1 [CHEMBL195362]			4.60	Inactive
O=[N+]([O-])c1ccc(-c2nnc(N3CCOCC3)s2)s1 [CHEMBL195645]			4.97	Inactive
O=[N+]([O-])c1ccc(-c2nnc(N3CCNCC3)s2)o1 [CHEMBL195646]			5.05	Active
c1csc(-c2nc3ccccc3[nH]2)c1 [CHEMBL201221]	5.51	Active		
O=[N+]([O-])c1ccccc1-c1nc2ccccc2[nH]1 [CHEMBL209918]	5.54	Active		
COc1c2c(cc(O)c1-c1c(C)cc3cccc(OC)c3c1O)C[C@H](C)N=C2C [CHEMBL221884]			4.48	Inactive
COc1cc(C)c(-c2ccc3cc(C)nc(C)c3c2O)c2cccc(O)c12 [CHEMBL222221]			4.49	Inactive
Cc1cc2ccc(-c3c(C)cc(O)c4c(O)cccc34)c(O)c2c(C)n1 [CHEMBL222338]			4.00	Inactive
COc1cc2c(c(OC)c1)C(C)=[N+](c1ccc(OC)c3c(OC)cc(C)cc13)[C@@H](C)C2.O=C([O-])C(F)(F)F [CHEMBL222358]	5.31	Active		
COc1cc2c(c(OC)c1-c1c(C)cc3cccc(OC)c3c1O)C(C)=N[C@@H](C)C2 [CHEMBL222436]			4.00	Inactive
COc1cc(CO)c(-c2ccc3c(c2O)[C@@H](C)N[C@H](C)C3)c2cccc(O)c12 [CHEMBL222805]			4.00	Inactive
COc1ccc(-c2ccc3cc(C)nc(C)c3c2O)c2cc(C)cc(OC)c12 [CHEMBL224952]			4.00	Inactive
CCOC(=O)C1=C(C)NC(=S)NC1c1cccc(O)c1 (centres unmarked) [CHEMBL236789]	5.65	Active		
CC(=O)CCCCCCCCCCCC[C@H]1CC[C@@H](O)[C@@H](C)N1 [CHEMBL249464]			4.12	Inactive
COC(=O)C1=C(C)NC(C)=C(C(=O)OC(C)(C)CN(C)CCC(c2ccccc2)c2ccccc2)C1c1cccc([N+](=O)[O-])c1 (centres unmarked) [CHEMBL250270]			4.94	Inactive
C=CCOc1ccc(C(=O)/C=C/c2ccc(OC)cc2OC)cc1 [CHEMBL253672]	5.40	Active		

Structure (SMILES)	pIC50 Value (L. major [1]; [3])	Outcome (L. major [2]; [4])	pIC50 Value (L. major [1]; [5])	Outcome (L. major [2]; [6])
CC1=CCC[C@@]2(C)CC3=C(C[C@@H]12)C(=O)C=CC3=O [CHEMBL255103]			4.77	Inactive
CC1=C2C(=O)c3c(O)ccc(O)c3CC2(C)CCC1=O (centres unmarked) [CHEMBL255104]			3.52	Inactive
CC1(O)CCCC2(C)Cc3c(O)ccc(O)c3CC12 (centres unmarked) [CHEMBL255315]			4.99	Inactive
C/C(C=O)=C\CCC(C)(O)/C=C\c1cc(O)ccc1O (centres unmarked) [CHEMBL255316]			4.04	Inactive
CC1=C2C(=O)c3c(OC(=O)c4ccc(Br)cc4)ccc(OC(=O)c4ccc(Br)cc4)c3CC2(C)CCC1=O (centres unmarked) [CHEMBL255868]			4.43	Inactive
CC(=O)Oc1ccc(OC(C)=O)c2c1CC1(C)CCC(=O)C(C)=C1C2=O (centres unmarked) [CHEMBL255869]			3.65	Inactive
C=C[C@@]1(C)CC2=C(C[C@H]1C(=C)C)C(O)C=CC2O (some centres unmarked) [CHEMBL257133]			4.74	Inactive
C/C(C=O)=C\CC/C(C)=C/Cc1cc(O)ccc1O [CHEMBL257343]			4.57	Inactive
C[C@@H]1[C@H](O)[C@@H](C)/C=C/C=C/C=C/C=C/C=C/C=C/C=C/[C@H](O[C@@H]2O[C@H](C)[C@@H](O)[C@H](N)[C@@H]2O)C[C@@H]2O[C@](O)(C[C@@H](O)C[C@@H](O)[C@H](O)CC[C@@H](O)C[C@@H](O)CC(=O)O[C@H]1C)C[C@H](O)[C@H]2C(=O)O [CHEMBL267345]			3.27	Inactive
C[C@@H]1CC[C@H]2[C@@H](C)C(=O)O[C@@H]3O[C@@]4(C)CC[C@@H]1[C@]32OO4 [CHEMBL269671]	6.12	Active		
Nc1ccc(Nc2c3ccccc3nc3ccccc23)cc1 [CHEMBL289352]	5.68	Active		
O=C(CCl)N1c2ccccc2Sc2ccc(Cl)cc21 [CHEMBL290253]			4.98	Inactive
CN(C)Cc1ccc(Nc2c3ccccc3nc3ccccc23)cc1 [CHEMBL290441]	6.00	Active		
CCCCCCNc1ccc(Nc2c3ccccc3nc3ccccc23)cc1 [CHEMBL299581]	6.26	Active		
CCCCN(CCCC)c1ccc(Nc2c3ccccc3nc3ccccc23)cc1 [CHEMBL312941]	6.46	Active		
CCCCCCN(C)c1ccc(Nc2c3ccc(Cl)cc3nc3ccc(OC)cc23)cc1 [CHEMBL315133]	5.74	Active		
CCN(CC)c1ccc(Nc2c3ccccc3nc3ccccc23)cc1 [CHEMBL315530]	6.40	Active		
CCCCCCCc1ccc(Nc2c3ccccc3nc3ccccc23)cc1 [CHEMBL316058]	6.10	Active		
O=[N+]([O-])c1ccc2ncnc(Nc3cccc(Br)c3)c2c1 [CHEMBL329161]			5.04	Active

— paper PMC8196580, “Identification of Kaurane-Type Diterpenes as Inhibitors of Leishmania Pteridine Reductase I” (Molecules, 2021)
